In US20250186467A1, “METHODS OF TREATING MEDICAL CONDITIONS USING STAMPIDINE OR A RELATED COMPOUND” (ROME Therapeutics, Inc., priority 2022, published 2025):

Assays:
IFN-β = experiment: Decitabine-stimulated human PBMC assay, IFN-β; format: cell-based; settings: PBMCs with anti-CD3/anti-CD28 and 10 μM decitabine, 5 days
Method: EasySep buffer (32 mL, Stem Cell, cat. #20144) was used to dilute 8 mL of LRSC buffy coat (from fresh Leukopak) with gentle mixing. The diluted buffy coat (20 mL) was transferred into each of two SepMate 50 tubes, and the tubes were filled with 15 mL of Lyphoprep (Stem Cell, ct. #07851) density gradient. The SepMate tubes were then centrifuged at 1200G for 10 minutes at room temperature with the brake on. The top layer of supernatant was collected in SepMate tubes by quickly pouring it into a new 50 mL conical tube. The PBMCs were washed with EasySep buffer×2 by centrifuging at 300G for 5 minutes. The cells were resuspended in 30 mL of EasySep and centrifuged at 100G for 5 minutes with the brake off, and the platelets were removed. The cells were then resuspended in 6 mL of 1× RBC lysis buffer (InvitroGen) and incubated at 37° C. for 5 minutes. Then, 25 mL of EasySep buffer was mixed into the tube and it was centrifuged at 300G for 5 minutes. The cells were resuspended in 10 mL of EasySep buffer and the cells were then counted with Cellometer (AO/PI). The PBMCs were resuspended in RPMI1640 (ThermoFisher)+10% FBS (HyClone)+p/s at 3×10^6/mL. The PBMCs (100 μL, 300 k PBMCs) were then seeded in a 96-well flat bottom microplate (Corning) that had been precoated with 100 μL of anti-CD3 antibody (10 μg/mL in PBS, Biolegend) or PBS at 4° C., one day before the assay was commenced. […]

THP1-Dual KO-TREX1 cells = experiment: CellTiter-Glo cell viability in THP1 TREX1 KO cells; format: cell-based; settings: highest dose, with 1 μM 5-aza-2′-deoxycytidine, five days
Method: THP1 Dual TREX1 KO cells were purchased from Invivogen. The THP1-Dual™ KO-TREX1 cells were cultured in RPMI 1640, 10% heat-inactivated fetal bovine serum, 25 mM HEPES, 10 μg/mL Blasticidin, and 100 μg/mL Zeocin. THP1-Dual™ KO-TREX1 cells were treated with a dose titration of test compound in the presence of 1 μM 5-aza-2′-deoxycytidine (Sigma, cat #189825). Type 1 Interferon and cell viability were assessed after five days of treatment.
Stock solution of test compound was prepared in DMSO followed by a three-fold dilution in DMSO. Additional 50× dilution was prepared in cell culture media for each dilution. 10 μL of diluted test compound was then added to a 384-well plate.
THP1-Dual™ KO-TREX1 cells were treated with 1 μM 5-aza-2′-deoxycytidine. THP1-Dual™ KO-TREX1 cells (50 μL) were added to each well of the 384-well plate containing test compound titration at 10,000 cells/well. Cells were incubated at 37° C., 5% CO2 in a humidified incubator for five days. […] Luminescence was detected on a plate reader according to manufacturer's instructions. […]
The remaining cells were assessed for cell viability by adding 30 μl of CellTiter-Glo (Promega, 09683) solution to each well, and placed on a shaker for 10 minutes at room temperature. Luminescence was detected on a plate reader, according to manufacturer's instructions. […]

SMILES: COC(=O)[C@H](C)N[P@](=O)(OC[C@@H]1C=C[C@H](n2cc(C)c(=O)[nH]c2=O)O1)Oc1ccc(Br)cc1 [Stampidine, methyl ((S)-(4-bromophenoxy)(((2S,5R)-5-(5-methyl-2,4-dioxo-3,4-dihydropyrimidin-1(2H)-yl)-2,5-dihydrofuran-2-yl)methoxy)phosphoryl)-L-alaninate]
- inhibition of IFN-β (IFN-β): showed inhibition of IFN-β
- reduction in cell viability (THP1-Dual KO-TREX1 cells): ~15%
